Experimental data: patent US11474097B2, “Method of identifying a compound which affects the multienzyme metabolic assembly of glucose metabolism and its association with cell cycle progression in cancer cells” (UNIVERSITY OF MARYLAND, BALTIMORE COUNTY, priority 2018, dated 2022)
Where a name gives a salt, the structure may show the parent alone. Each block holds one compound with its values, some of them ahead of it.

Columns and labels:
Type in all cases: cell-based, human
[1] = test system: PFK1-mEGFP clustering in HeLa-T-PFK1G cells; test: qHTS PFK1-mEGFP clustering assay with the LOKI library; conditions: for Curve class: LOKI screen; for PFK1-mEGFP clustering when the assay was repeated: repeat of the LOKI assay, FIGS. 8A-8C
Experimental: HeLa-T-PFK1G cells were plated in 1536-well black, clear bottom, low base microwell plates (Aurora Microplates, Inc.) at a density of 400 cells/well in DMEM supplemented with 10% dialyzed FBS, 1% Pen-Strep, and 1 μg/mL doxycycline. The cells were incubated at 37° C., 5% CO2, and 95% humidity for 16 hours. A qHTS assay was scaled to 4 μL volumes in 1536-well format in a semi-automated manner.
Second, the qHTS assay was carried out with the LOKI library (10 mM, 11-point 1:3 intra-plate titration). Again, 23 nL of compounds were transferred by a pintool (Kalypsys) in the final concentration range of 974 pM to 57.5 μM along with DMSO. […] The cells were then incubated overnight with small molecules. Approximately 24 hours later, the cells were fixed with 3.5% paraformaldehyde and nuclei were stained using a 1:1000 dilution of Hoechst dye for ˜20 minutes. Cells were washed and imaged with an INCell Analyzer 2000 or INCell Analyzer 2200 (GE Healthcare Life Sciences) as described above.
Images were processed in the GE Workstation software and analyzed with a multitarget analysis of fluorescence. Top-hat segmentation of the DAPI channel was used to identify nuclei with a minimum area of 100 μm^2 and sensitivity of 40 settings. Multiscale top-hat segmentation of the FITC channel was used to identify cells with a characteristic area of 200 μm^2 and sensitivity of 70 settings. This allowed for the identification of fluorescent cells from the background or dead cells. Following cell segmentation, the same FITC channel was analyzed with multiscale top-hat segmentation to identify PFK1-mEGFP clusters with a size range of 0.2-2 μm^2, number scales of 1, process parameters of 1 pixel, sensitivity of 40, and inclusions in the cytoplasm. A filter of object area, that is, the area of PFK1-mEGFP clusters, below 30 μm^2 and an advanced sensitivity range of 1.5, was also applied. A decision tree thresholding was developed to identify cells with PFK1 clusters with three nodes. The start node required a cell intensity above 110 GL, the second node required a PFK1 cluster count above 1, and the third node required the total area of the PFK1 cluster above 5 μm^2. Ultimately, this allowed for the identification of cluster-positive cells over non-clustering cells. The total number of cells with a total area of PFK1 clusters above 5 μm^2 (most stringent parameter) and the total number of cells with any PFK1 clusters were calculated with the above algorithm and normalized by plate to the 57.5 μM kenpaullone intra-plate control as previously described (Inglese et al., 2006). Assay effectiveness including S:N (the signal to noise ratio) and Z′ (the index of assay quality (Zhang et al., 1999)) were calculated for both parameters using the same respective control. Both parameters were normalized to the average signal of DMSO (vehicle)-treated wells as a zero percent neutral control and the average signal of 57.5 μM kenpaullone-treated wells as maximum PFK1-mEGFP clustering. Cell count based on the number of nuclei was used as a parameter of cytotoxicity, which was also normalized to the average signal of DMSO-treated wells as a zero percent neutral control and the average signal of 57.5 μM […]-treated wells as maximum PFK1-mEGFP clustering. The respective normalized data from each assay plate was corrected using DMSO only treated assay plates at the beginning and end of each library screen. In-house software (http://ncgc.nih.gov/pub/openhts/curvefit/) was used to fit the resulting intra-plate titration data to the standard Hill equation and concentration-response curves were classified by a titration curve as previously described (Southall et al.). Curve fits assignments of class 1.1, 1.2, 2.1 and 2.2s were considered active (i.e., promotion of the PFK1-mEGFP clusters) and visually confirmed.

[2] = test system: PFK1-mEGFP clustering in HeLa-T-PFK1G cells; test: High-resolution fluorescence microscopy of PFK1-mEGFP clustering
Experimental: A day before imaging, HeLa-T-PFK1G cells in RPMI1640 supplemented with 10% dialyzed FBS, 200 ug/ml G418 sulfate and 100 ug/ml hygromycin B, were plated in the presence of 1 μg/mL doxycycline to induce the expression of PFK1-mEGFP. On the day of imaging, the cells were washed three times with an imaging solution (20 mM HEPES (pH 7.4), 135 mM NaCl, 5 mM KCl, 1 mM MgCl2, 1.8 mM CaCl2) and 5.6 mM glucose) and allowed to adjust to ambient temperature for ˜45-60 minutes prior to small molecule treatments. Meanwhile, transiently transfected HeLa cells were imaged after being washed with the imaging solution after ˜24 hours following transfection. The cells were then treated with small molecules and incubated at 37° C. for the given time. All samples were imaged at ambient temperature (˜25° C.) with a 60×1.45 NA objective lens (Nikon CFI Plan Apo TIRF) using a Photometrics CoolSnap EZ monochrome CCD camera on a Nikon Eclipse Ti-inverted C2 confocal microscope.
Epifluorescence imaging was carried out using a set of Z488/10-FC cleanup, HC TIRF Dichroic and 525/50-HC emission filter from Chroma Technology. Images were acquired using NIS Elements (Nikon) and images were analyzed using an ImageJ freeware (National Institutes of Health).
Next, the 8 compounds were assessed for their ability to induce PFK1-mEGFP clustering under high-resolution fluorescence microscopy. HeLa-T-PFK1G cells were treated with 57.5 μM for 5 hours (FIGS. 2A and 2B) and 10 μM for 25 hours (FIGS. 2C and 2D). […] Quantitatively, SU9516 induced medium- and large-sized PFK1-mEGFP clustering in 26.6±12% of the cells at 57.5 μM for 5 hours, and in 40.0±16% of cells at 10 μM for 25 hours (see, e.g., FIGS. 2B and 2D, respectively).

[3] = test system: PFK1-mEGFP clustering in HeLa-T-PFK1G cells; test: Resveratrol-induced clustering of PFK1-mEGFP (positive control, assay development); conditions: 200-250 μM, three hours
Experimental: Cells were treated with 200-250 μM resveratrol for three hours. Scale bar, 10 μm.

[4] = test system: cell cycle progression of HeLa-T-PFK1G cells; test: Cell cycle analysis by propidium iodide staining and flow cytometry; conditions: 10 μM, 24 hours
Experimental: FIG. 7A illustrates the effect of SU9516 on the cell cycle progression of HeLa-T-PFK1G cells. Cells received no small molecules or were treated with DMSO or 10 uM SU9516 and incubated for 24 hours. Then, cells were assessed for cell cycle progression by propidium iodide staining. The changes of the average percentage of cells in each cell cycle following incubation with an indicated compound are shown. Error bars represent the standard deviations of at least three trials and statistical significance was determined using student's two-tailed t test. HeLa-T-PFK1G cells were plated in 6-well plates for a confluency of 70-90% in RPMI1640 supplemented with 10% dialyzed FBS in the presence of 1 ug/mL doxycycline. The following day, the cells were treated with SU9516 or DMSO for 24 hours. The cells were then harvested and analyzed for the cell cycle progression as previously described (Crowley et al., 2016). Briefly, hundreds of thousands of cells were removed from 6-well plates using trypsin, washed with 1×PBS (pH 7.4), resuspended in ice-cold PBS and fixed with ice-cold methanol for 20 minutes at 4° C. The cells were then washed and resuspended in the cell cycle buffer, which contains 30 ug/mL propidium iodide and 100 μg/mL RNase A (Thermo Cat # EN0531) in 1×PBS (pH 7.4). After being incubated for at least 45 minutes, flow cytometry was performed with a CyAn ADP (Beckman Coulter) running Summit V 4.00, equipped with a 488 nm laser line and 530/40 and 613/20 emission filters. Using FlowJo (FlowJo, LLC), cell populations were gated based on the expression of PFK1-mEGFP in cells as well as their size and granularity. The cell cycle progression was then assessed by the Dean-Jett-Fox analysis using Cell Cycle platform available in FlowJo (Fox, 1980).

[5] = test system: transiently expressed PFK1-mEGFP in HeLa cells; test: PFK1-mEGFP clustering in transiently transfected wild-type HeLa cells; conditions: 57.5 μM, 5 hours
Experimental: A day before transient transfection, wild-type HeLa cells were plated on either glass-bottomed 35 mm petri dishes (MatTek) or 8-well chambers (LabTek) in RPMI 1640 supplemented with 10% dialyzed FBS without antibiotics. The following day, HeLa cells were transfected with PFK1-mEGFP using Lipofectamine 2000 (Invitrogen Cat#11668019) in Opti-MEM I (ThermoFisher Cat#11058-021) and allowed to incubate in a HeraCell CO2 incubator (37° C., 5% CO2, and 95% humidity). Approximately 5 hours later, the medium was exchanged for fresh growth medium and incubated overnight in the CO2 incubator.
A day before imaging, HeLa-T-PFK1G cells in RPMI1640 supplemented with 10% dialyzed FBS, 200 ug/ml G418 sulfate and 100 ug/ml hygromycin B, were plated in the presence of 1 μg/mL doxycycline to induce the expression of PFK1-mEGFP. On the day of imaging, the cells were washed three times with an imaging solution (20 mM HEPES (pH 7.4), 135 mM NaCl, 5 mM KCl, 1 mM MgCl2, 1.8 mM CaCl2) and 5.6 mM glucose) and allowed to adjust to ambient temperature for ˜45-60 minutes prior to small molecule treatments. […]
As a control, PFK1-mEGFP was transiently transfected into wild-type HeLa cells and treated with SU9516. After 5 hours of treatment with 57.5 μM of SU9516, the promotion of medium- and large-sized clusters from small-sized clusters at single-cell levels were monitored (FIG. 4).

[6] = Table 4, inhibitors of the off-targets of SU9516
[7] = Table 5, CDK inhibitors that did not induce PFK1-mEGFP clustering
[8] = 10 μM, 24 hr, HeLa-T-PFK1G cells

SMILES: CC(C)c1cnn2c(NCc3ccccc3)cc(NCCCCCCN)nc12 [NCGC00346553-01, BS-181]
Curve class [1, 6]: 2.1
PFK1-mEGFP clustering when the assay was repeated [1]: did not promote PFK1-mEGFP clustering

SMILES: CN1CCC(c2c(O)cc(O)c3c(=O)cc(-c4ccccc4Cl)oc23)C(O)C1 (stereo in doubt) [NCGC00250401-01]
Curve class [1, 7]: 4

SMILES: Cn1cnc2c(NCc3ccccc3)nc(NCCO)nc21 [NCGC00015763-01]
Curve class [1, 7]: 4

cell morphology observed [2, 8]: vacuole-type artifact
SMILES: Clc1ccc(C(c2ccc(Cl)cc2)n2cc[n+](CC(OCc3ccc(Cl)cc3Cl)c3ccc(Cl)cc3Cl)c2)cc1 (stereo not drawn) [calmidazolium chloride, Calmidazolium chloride]

SMILES: CC(O)(C#Cc1ccc2c(c1)N(c1nc(N)ncc1Cl)CC2)c1nccs1 (stereo not drawn) [NCGC00346747-02]
Curve class ([1]; PFK1-mEGFP clustering vs log compound concentration, Table 3 hits): 2.1

SMILES: CC(=O)c1c(C)c2cnc(Nc3ccc(N4CCNCC4)cn3)nc2n(C2CCCC2)c1=O [NCGC00263129-01, Palbociclib]
Curve class [1, 6]: 2.1

SMILES: CC(=O)OC1C(C)OC(Oc2c(-c3ccc(O)cc3)oc3cc(O)cc(O)c3c2=O)C(O)C1OC(C)=O (stereo not drawn) [NCGC00346893-01, SL-0101-1]
Curve class [1, 6]: 2.1
Curve class [1, 7]: 4
PFK1-mEGFP clustering when the assay was repeated [1]: did not promote PFK1-mEGFP clustering

SMILES: Oc1ccc(C=Cc2cc(O)cc(O)c2)cc1 [resveratrol]
percent of cells exhibiting medium- or large-sized clusters in the cytoplasm [3]: 80-90%

SMILES: O=C(NC1CCNCC1)c1[nH]ncc1NC(=O)c1c(Cl)cccc1Cl [NCGC00263091-01]
Curve class [1, 7]: −1.3

SMILES: CCc1ccc(NC(=O)c2[nH]c(C)c(C(C)=O)c2C)cc1S(=O)(=O)Nc1cccc(C#N)c1 [NCGC00345632-01]
Curve class [1, 7]: −2.1

SMILES: Cn1c(=O)c(F)c(Nc2ccc(I)cc2F)c2c(=O)n(C[C@@H](O)CO)cnc21 [NCGC00263187-01]
Curve class [1, 7]: −2.4

cell morphology observed [2, 8]: vacuole-type artifact
SMILES: C=CCc1cccc(/C=N/NC(=O)CN2CCN(Cc3ccccc3)CC2)c1O [PAC-1]

SMILES: CC(=O)NCC(=O)N1[C@H]2CC[C@H]1c1cc(Nc3ncc(C(F)(F)F)c(NC4CCC4)n3)ccc12 [NCGC00346652-01, PF-03814735]
Curve class [1, 6]: 2.1
PFK1-mEGFP clustering when the assay was repeated [1]: induced PFK1-mEGFP clustering

SMILES: CCS(=O)(=O)Nc1ccc2c(c1)/C(=C(/Nc1ccc(CN3CCCCC3)cc1)c1ccccc1)C(=O)N2 [NCGC00346542-01, Hesperadin]
Curve class [1, 6]: 2.1

SMILES: CN1CCC[C@@H]1CCO[C@](C)(c1ccccc1)c1ccc(Cl)cc1 [clemastine fumarate, Clemastine fumarate]
cell morphology observed ([2]; 57.5 μM, 6 hr, HeLa-T-PFK1G cells): protein localization and cell death

EC50 ([2]; Homo sapiens, titration for 25 hours, HeLa-T-PFK1G cells, read-out: EC50 with respect to PFK1-mEGFP clustering): 6.8 µM
SMILES: COc1ccc2c(c1)/C(=C/c1cnc[nH]1)C(=O)N2 [SU9516, 3-[1-(3H-Imidazol-4-yl)-meth-(Z)-ylidene]-5-methoxy-1,3-dihydro-indol-2-one]
population of cells in the G2 phase ([4]; 18.9%±[…] without compound): 45.6%±1.9%
population of cells in the S phase ([4]; 21.5%±7.2% without compound): 4.2%±2.4%
population of cells in the G1 phase ([4]; 54.7%±5.7% without compound, no significant change): 48.4%±2.7%
percent of cells with medium- and large-sized PFK1-mEGFP clustering ([2]; 10 μM for 25 hours): 40.0±16%
percent of cells with medium- and large-sized PFK1-mEGFP clustering ([2]; 57.5 μM for 5 hours): 26.6±12%
ability to induce PFK1-mEGFP clustering under high-resolution fluorescence microscopy ([2]; 57.5 μM for 5 hours and 10 μM for 25 hours): capable of inducing PFK1-mEGFP clusters
promotion of medium- and large-sized PFK1-mEGFP clusters [5]: capable of promoting PFK1-mEGFP clusters
